Laboratory results taken from patent US5763212A, “Inhibiting degradation of a degron-bearing protein” (California Institute of Technology, priority 1995, dated 1998).
Residues, ends and D or L forms follow the SMILES beside them.

System: Arg-e^K-DHFRha (mouse dihydrofolate reductase with e^K extension and ha epitope, from Ub-Arg-e^K-DHFRha)
Assay: Degradation of 35S-labeled N-end rule substrate in ATP-supplemented reticulocyte extract (acid-soluble 35S, SDS-PAGE)
Type: biochemical
Settings: for inhibition of Arg-e^K-DHFRha degradation: FIG. 3A

Row | SMILES | inhibition of Arg-e^K-DHFRha degradation (1 mM Arg-Ala dipeptide, reticulocyte extract) | effect on ubiquitination of Arg-e^K-DHFRha (1 mM Arg-Ala dipeptide, reticulocyte extract, SDS-PAGE) | inhibition of Arg-e^K-DHFRha degradation (20 μM methotrexate, ATP-supplemented reticulocyte extract, 37° C.) | effect on multiubiquitination of Arg-e^K-DHFRha (20 μM methotrexate, ATP-supplemented reticulocyte extract, SDS-PAGE)
1 | C[C@H](NC(=O)[C@@H](N)CCCNC(=N)N)C(=O)O [Arg-Ala] (H-Arg-Ala-OH) | almost completely inhibited | inhibited |  | 
2 | CN(Cc1cnc2nc(N)nc(N)c2n1)c1ccc(C(=O)N[C@@H](CCC(=O)O)C(=O)O)cc1 [methotrexate] |  |  | nearly complete inhibition | enhanced
